Values joined by “and” are separate entries in the source; they are usually repeats but may differ in a detail not shown here. Equal values may be shown once. Read-outs that look alike come from different tables or passages of the source.
What was measured:
5-lipoxygenase = target: T1, 5-lipoxygenase (Glycine max, UniProt P08170); test: 5-Lipoxygenase inhibitory assay (linoleic acid, 234 nm); format: biochemical, Soybean; conditions: for inhibition at 80 µM: read-out: 5-Lipoxygenase Inhibitory (% at 80 µmol/L)
T1 sequence (P08170 1-839): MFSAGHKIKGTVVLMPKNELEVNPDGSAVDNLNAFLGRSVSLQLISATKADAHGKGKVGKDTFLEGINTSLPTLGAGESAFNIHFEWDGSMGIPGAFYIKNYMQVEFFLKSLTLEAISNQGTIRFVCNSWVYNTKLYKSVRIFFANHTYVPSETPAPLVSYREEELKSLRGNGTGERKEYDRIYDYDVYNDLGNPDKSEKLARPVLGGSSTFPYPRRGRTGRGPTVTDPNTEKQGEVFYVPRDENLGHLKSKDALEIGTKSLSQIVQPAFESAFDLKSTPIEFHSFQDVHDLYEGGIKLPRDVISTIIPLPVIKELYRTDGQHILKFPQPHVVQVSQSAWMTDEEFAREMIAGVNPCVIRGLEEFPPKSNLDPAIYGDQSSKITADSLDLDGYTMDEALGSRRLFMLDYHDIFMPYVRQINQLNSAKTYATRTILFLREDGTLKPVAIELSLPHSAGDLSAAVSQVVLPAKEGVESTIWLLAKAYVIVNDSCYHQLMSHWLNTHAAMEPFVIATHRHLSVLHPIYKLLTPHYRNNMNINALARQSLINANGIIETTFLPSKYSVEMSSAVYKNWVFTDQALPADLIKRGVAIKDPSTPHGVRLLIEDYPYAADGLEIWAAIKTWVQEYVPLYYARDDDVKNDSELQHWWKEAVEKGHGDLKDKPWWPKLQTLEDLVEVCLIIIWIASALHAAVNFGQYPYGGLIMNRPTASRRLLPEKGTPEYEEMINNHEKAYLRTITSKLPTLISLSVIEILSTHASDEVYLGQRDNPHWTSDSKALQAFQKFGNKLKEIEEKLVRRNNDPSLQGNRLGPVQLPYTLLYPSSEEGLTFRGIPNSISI
Description: The anti-inflammatory activity activities of the isolates was determined on Soybean lipoxygenase as described by Khlifi et al. with some modifications. 20 µL of each compound was mixed individually with 150 µL sodium phosphate buffer (pH 7.4) containing 20 µL of 5-lipoxygenase and 60 µL of linoleic acid (3.5 mM), yielding a final volume of 250 µL. […] The mixture was incubated at 25 °C for 10 min, and the absorbance was determined at 234 nm. The absorption change with the conversion of linoleic acid to 13-hydroperoxyoctadeca-9,11-dienoate (characterized by the appearance of the conjugated diene at 234 nm) was followed for 10 min at 25 °C. […] All measurements were performed in triplicate.

[1] = MTT cytotoxicity assay, HCT-116; format: cell-based; conditions: human, HCT-116 colon carcinoma cells; HCT-116, MTT; read-out: Cytotoxic Activity (IC50 µmol/L) HCT-116
Description: (§1) The human cancer cell line was used for cytotoxic assay: (HCT-116, IGROV-1 and OVCAR-3). The cells were grown in RPMI-1640 medium supplemented with 10% faetal calf serum (Gibco, Langley, OK, USA), air and 5% CO2. The isolate was added to a medium containing 1 × 10^6 cells/mL, 2 mM L-glutamine and 50 μg/mL gentamycin, and kept at 37 °C in a fully humidified atmosphere. After 18 h of incubation at 37 °C in 5% CO2 incubator, the tubes were centrifuged at 8000 g for 10 min. The supernatant was decanted, and the pellets taken and washed with 20 mM of phosphate buffered saline solution. Each pellet was dissolved in 100 μL (2 mg/mL) MTT solution in a tube, incubated at 22 °C for 4 h and centrifuged at 8000 g for 10 min. All the pellets were dissolved in 500 μL DMSO and read spectrophotometrically at 500 nm. IC50 was calculated by nonlinear regression analysis. Doxorubicin (HCT116) and tamoxifen (IGROV-1 and OVCAR-3) were used as positive control.

[2] = MTT cytotoxicity assay, IGROV-1; format: cell-based; conditions: human, IGROV-1 ovary cells; IGROV-1, MTT; read-out: Cytotoxic Activity (IC50 µmol/L) IGROV-1
Description: as §1

[3] = MTT cytotoxicity assay, OVCAR-3; format: cell-based; conditions: human, OVCAR-3 ovary cells; OVCAR-3, MTT; read-out: Cytotoxic Activity (IC50 µmol/L) OVCAR-3
Description: as §1

[4] = DPPH free radical scavenging test; conditions: mean ± SD of three measurements; read-out: IC50 (µmol/L) DPPH Assay
Description: The antioxidant activity of compounds was assessed according to their DPPH scavenging ability as described by Khlifi et al., [33] with some modifications. Reaction mixtures, containing 0.1 mL of the relevant compounds solution in methanol, with concentrations ranging 3 mg/mL and 0.1 mL of a 0.2 mM DPPH methanolic solution, were added to 96-well microtiter plates and incubated at 25 °C for 30 min. Absorbances were measured at 520 nm, the wavelength of maximum absorbance of DPPH, were recorded as A(sample). A blank experiment was also carried out applying the same procedure to a solution without the test material and the absorbance was recorded as A(blank).
Ascorbic acid was used as a standard. All measurements were performed in triplicate.

[5] = ABTS radical-scavenging test; conditions: mean ± SD of three measurements; read-out: IC50 (µmol/L) ABTS+ Assay
Description: The radical scavenging capacity of the samples for the ABTS (2,2′-azinobis-3-ethylbenzothiazoline-6-sulphonate) radical cation was determined as described by Khlifi et al., [33] with some modifications. ABTS was generated by mixing a 7 mM of ABTS at pH 7.4 (5 mM NaH2PO4, 5 mM Na2HPO4 and 154 mM NaCl) with 2.5 mM potassium persulfate (final concentration) followed by storage in the dark at room temperature for 16 h before use. The mixture was diluted with ethanol to give an absorbance of 0.70 ± 0.02 units at 734 nm using spectrophotometer. For each sample, diluted solution (20 μL) was allowed to react with fresh ABTS solution (180 μL), and then the absorbance was measured 6 min after initial mixing. […] The capacity of free radical scavenging IC50 was determined using the same previously used equation for the DPPH method. All measurements were performed in triplicate.

[6] = previously tested, cited from earlier work
[7] = test system: human promyelocytic leukemia cell HL-60; design: method as in PMID 15387667; conditions: read-out: IC50 against HL-60; cited from earlier work
[8] = test system: human fibrosarcoma cell line HT-1080; design: method as in PMID 15387667; conditions: read-out: IC50 against HT-1080; cited from earlier work
[9] = test system: colon cancer cell line LoVo; design: method as in PMID 15387667; conditions: read-out: IC50 against LoVo; cited from earlier work
LoVo/Doxo = test system: LoVo/Doxo; design: method as in PMID 15387667; conditions: read-out: IC50 against LoVo/Doxo; cited from earlier work
[10] = design: method as in doi:10.1016/j.foodchem.2011.09.005; conditions: previously tested; read-out: Fe3+ reducing power ability IC50; cited from earlier work
[11] = design: method as in doi:10.1016/j.foodchem.2011.09.005; conditions: previously tested; read-out: hydrogen peroxide (H2O2) inhibition IC50; cited from earlier work
[12] = test system: 5-lipoxygenase isolated from rat basophilic leukaemia cells (RBL-1); design: method as in doi:10.1016/j.foodchem.2009.09.088; conditions: at 20 µmol/L; cited from earlier work
liver cell line Hep-G2 = test system: liver cell line Hep-G2; design: method as in PMID 18481014; conditions: read-out: IC50 against Hep-G2; cited from earlier work
[13] = test system: human chronic myelogenous leukemia cell line K562; design: method as in PMID 22913434; conditions: read-out: IC50 against K562; cited from earlier work
[14] = read-out: DPPH radical scavenging activity IC50

| SMILES | inhibition at 80 µM (5-lipoxygenase) [%] | IC50 at 18 h [1] [µmol/L] | IC50 at 18 h [2] [µmol/L] | IC50 at 18 h [3] [µmol/L] | 5-Lipoxygenase Inhibitory (% at 80 µmol/L) (5-lipoxygenase) | IC50 [4] [µmol/L] | IC50 [5] [µmol/L] | further results |
| --- | --- | --- | --- | --- | --- | --- | --- | --- |
| C/C(O[C@@H]1O[C@H](CO)[C@@H](O)[C@H](O)[C@H]1O)=C1/C=CC(=O)O1 [Compound 1, (E)-5-Ethylidenefuran-2(5H)-one-5-O-β-D-glucopyranoside] | 16.9 ± 1.2 | > 100 | > 100 | > 100 | – | – | – | – |
| C/C(=C\C(=O)O)CO [Compound 2, 4-Hydroxy-3-methylbut-2-enoic acid] | 0 | > 100 | > 100 | > 100 | did not exhibit activities | – | – | – |
| CC1=CC(=O)C2CC1(O[C@@H]1O[C@H](CO)[C@@H](O)[C@H](O)[C@H]1O)C2(C)C (stereo partly drawn) [Compound 3, Verbenone-5-O-β-D-glucopyranoside] | 12.4 ± 0.8 | > 100 | > 100 | > 100 | – | – | – | – |
| O=C(/C=C/c1ccc(O)c(O)c1)O[C@@H]1C[C@](O)(C(=O)O)C[C@@H](O)[C@H]1O [Compound 4, 5-O-Caffeoylquinic acid] | 17.1 ± 1.1 | > 100 | > 100 | > 100 | – | – | – | – |
| COC(=O)/C=C/c1ccc(O)c(O)c1 [Compound 5, Methyl caffeate] | 0 | 22.5 ± 2.4 | 17.8 ± 1.1 | 25 ± 1.1 | did not exhibit activities | 39.2 ± 0.5 | 40.8 ± 0.4 | IC50 [6, 14]: 14 ± 2.3 µM; IC50 [7]: 7.5 ± 1.6 µM; IC50 [8]: 11.1 ± 3.5 µM; IC50 [9]: 5.8 ± 1.1 µM; IC50 (LoVo/Doxo): ≥ 40 µM |
| COC(=O)[C@]1(O)C[C@@H](OC(=O)/C=C/c2ccc(O)c(O)c2)[C@@H](O)[C@H](OC(=O)/C=C/c2ccc(O)c(O)c2)C1 [Compound 6, Methyl 3,5-O-Dicaffeoylquinate] | – | > 100 | > 100 | > 100 | – | 26.6 ± 1.3 | 20 ± 0.3 | IC50 (5-lipoxygenase): 5.3 µM and 5.28 µM; IC50 ([6]; read-out: DPPH IC50): 10.3 ± 0.24 µM; IC50 [10]: 270 ± 7.37 µM; IC50 [11]: 316.4 ± 2.86 µM; percent inhibition of 5-lipoxygenase (RBL-1) [12]: 15.1%; IC50 (liver cell line Hep-G2): 72.7 ± 6.2 µM |
| O=C(/C=C/c1ccc(O)c(O)c1)O[C@@H]1C[C@](O)(C(=O)O)C[C@@H](OC(=O)/C=C/c2ccc(O)c(O)c2)[C@H]1O [Compound 7, 3,5-O-Dicaffeoylquinic acid] | – | > 100 | > 100 | > 100 | – | 18 ± 0.5 | 19.7 ± 0.7 | IC50 (5-lipoxygenase): 10 ± 0.2 µM; IC50 [6, 14]: 18.2 ± 0.5 µM; percent inhibition of 5-lipoxygenase (RBL-1) [12]: inactive |
| COc1cc(-c2oc3cc(O)cc(O)c3c(=O)c2O[C@@H]2O[C@H](CO[C@@H]3O[C@@H](C)[C@H](O)[C@@H](O)[C@H]3O)[C@@H](O)[C@H](O)[C@H]2O)ccc1O [Compound 8, Isorhamnetin-3-O-α-L-rhamnopyranosyl(1→6)-β-D-glucopyranoside,narcissin] | 0 | > 100 | > 100 | > 100 | did not exhibit activities | > 300 | > 300 | DPPH radical scavenging activity [6]: no activity; IC50 [13]: 800 µM |
| CC(C)(O)[C@@H]1Cc2cc3ccc(=O)oc3cc2O1 [Compound 9, (−)-Marmesin] | 0 | 50 ± 4.9 | > 100 | > 100 | did not exhibit activities | – | – | – |
| CC(C)=CCOc1c2ccoc2cc2oc(=O)ccc12 [Compound 10, Isoimperatorin] | 0 | > 100 | > 100 | > 100 | did not exhibit activities | – | – | – |
| Cc1ccc(C)c(C=O)c1C [Compound 11, 2,3,6-Trimethylbenzaldehyde] | 0 | > 100 | > 100 | > 100 | did not exhibit activities | – | – | – |
| COc1cccc2c1C(=O)c1c(O)c3c(c(O)c1C2=O)C[C@@](O)(C(=O)CO)C[C@@H]3O[C@H]1C[C@H](N)[C@H](O)[C@H](C)O1 [Doxorubicin, reference compound] | – | 0.18 ± 0.01 | – | – | – | – | – | – |
| CC/C(=C(\c1ccccc1)c1ccc(OCCN(C)C)cc1)c1ccccc1 [Tamoxifen, tamoxifen, reference compound] | – | – | 2 ± 0.1 | 1.3 ± 0.1 | – | – | – | – |
| O=C1O[C@H]([C@@H](O)CO)C(O)=C1O [Vitamin C, ascorbic acid, reference compound] | – | – | – | – | – | 25 ± 1.1 | 23.3 ± 0.1 | – |

Source: publication PMC6271101, “Antioxidant, 5-Lipoxygenase Inhibitory and Cytotoxic Activities of Compounds Isolated from the Ferula lutea Flowers” (Molecules, 2014)
